Literature values as cited in paper PMC8764166, “Phenolic-Rich Plant Extracts With Antimicrobial Activity: An Alternative to Food Preservatives and Biocides?” (Frontiers in Microbiology, 2022).
Converted amounts (≈) assume the structure as drawn. Where two headings read alike, the source gives them in different places.

How the values were obtained:
[1] = tested on: Escherichia coli; settings: for MIC against Escherichia coli: E. coli O157:H7 ATCC 43890, 2.5 10^6 cfu·ml^−1, Mueller Hinton broth, ref Pacheco-Ordaz et al., 2017
[2] = tested on: Staphylococcus aureus
[3] = tested on: Bacillus cereus; settings: for MIC against Bacillus cereus: ref Skroza et al., 2019
[4] = tested on: Salmonella Infantis; set-up: method as in Skroza et al., 2019; settings: ref Skroza et al., 2019
[5] = tested on: Enterococcus faecalis; settings: for MIC against E. faecalis: ref del Valle et al., 2016; for MIC against Enterococcus faecalis: ref Adamczak et al., 2020
[6] = tested on: S. aureus; settings: up to 20% (w/w) proteins, 37°C, 15°C or 6°C; ref Bouarab-Chibane et al. (2018b)
[7] = tested on: Pseudomonas aeruginosa; settings: ref Adamczak et al., 2020
[8] = tested on: Salmonella typhimurium
[9] = tested on: L. monocytogenes; set-up: method as in Pernin et al., 2019; settings: ref Pernin et al., 2019
[10] = tested on: Salmonella enterica serovar Typhimurium; settings: ref Alvarado-Martinez et al., 2020
[11] = tested on: Lactobacillus plantarum; set-up: method as in Reverón et al., 2020; settings: ref Reverón et al., 2020
[12] = tested on: S. aureus; set-up: method as in Stojkovic et al., 2013; settings: chicken soup, 4°C, within 3 days; ref Stojkovic et al., 2013
[13] = tested on: biofilms with undesirable food spoiling or foodborne pathogenic microorganisms; set-up: method as in the references listed per substance; settings: the references listed per substance
[14] = tested on: Bacillus subtilis; set-up: method as in Duggirala et al., 2014; settings: ref Duggirala et al., 2014
[15] = tested on: Chromobacterium violaceum and P. aeruginosa; set-up: method as in Hossain et al., 2017; settings: ref Hossain et al., 2017
[16] = ŽMJ 129 (clinical isolate), 10^5–10^6 cfu·ml^−1, Mueller Hinton broth, 24 h 37°C, ref Skroza et al., 2019

## Oc1cc(O)c2c(c1)O[C@H](c1ccc(O)c(O)c1)[C@H](O)C2 [Epicatechin]
[1]; [16]
  MIC against E. coli: 720 µg/mL (≈ 2480 µM)
[2]; ref Skroza et al., 2019
  MIC against S. aureus: 720 µg/mL (≈ 2480 µM)
[3]
  MIC against Bacillus cereus: 360 µg/mL (≈ 1240 µM)
[4]
  MIC against Salmonella Infantis: 720 µg/mL (≈ 2480 µM)

## Oc1ccc(/C=C/c2cc(O)cc(O)c2)cc1 [Resveratrol]
[1]; [16]
  MIC against E. coli: 140 µg/mL (≈ 613 µM)
[2]; ref Skroza et al., 2019
  MIC against S. aureus: 70 µg/mL (≈ 307 µM)
[3]
  MIC against Bacillus cereus: 70 µg/mL (≈ 307 µM)
[4]
  MIC against Salmonella Infantis: 140 µg/mL (≈ 613 µM)
[5]
  MIC against E. faecalis: E. faecalis 0.12 g·L^−1
[6]
  antibacterial activity in the presence of bovine meat proteins: always lost their bacteriostatic activity

## O=C(O)c1ccccc1O [Salicylic acid]
[1]; ref Adamczak et al., 2020
  MIC against E. coli: 250 to 500 µg/mL
[1]; [16]
  MIC against E. coli: 170 µg/mL (≈ 1230 µM)
[7]
  MIC against P. aeruginosa: 500 µg/mL (≈ 3620 µM)
[2]; ref Adamczak et al., 2020
  MIC against S. aureus: 250 to 500 µg/mL
[2]; ref Skroza et al., 2019
  MIC against S. aureus: 350 µg/mL (≈ 2530 µM)
[3]
  MIC against Bacillus cereus: 170 µg/mL (≈ 1230 µM)
[4]
  MIC against Salmonella Infantis: 170 µg/mL (≈ 1230 µM)
[5]
  MIC against Enterococcus faecalis: 500 µg/mL (≈ 3620 µM)

## COc1cc(C(=O)O)cc(OC)c1O [Syringic acid]
[1]; [16]
  MIC against E. coli: 250 µg/mL (≈ 1260 µM)
[8]; ref Phadungkit and Luanratana, 2006
  MIC against S. typhimurium: S. typhimurium 0.0625 g·L^−1
[2]; ref Skroza et al., 2019
  MIC against S. aureus: 500 µg/mL (≈ 2520 µM)
[3]
  MIC against Bacillus cereus: 250 µg/mL (≈ 1260 µM)
[4]
  MIC against Salmonella Infantis: 250 µg/mL (≈ 1260 µM)

## O=C(O)c1ccc(O)c(O)c1 [Proto-catechuic acid]
[1]; 24 h 37°C
  MIC against Escherichia coli: E. coli, 3.1 g·L^−1
[1]; [16]
  MIC against E. coli: 380 µg/mL (≈ 2470 µM)
[2]; ref Skroza et al., 2019
  MIC against S. aureus: 380 µg/mL (≈ 2470 µM)
[3]
  MIC against Bacillus cereus: 190 µg/mL (≈ 1230 µM)
[4]
  MIC against Salmonella Infantis: 380 µg/mL (≈ 2470 µM)
[9]
  mechanism of action against L. monocytogenes: penetration or accumulation in the bacterial membrane of undissociated form
[10]
  cell morphology: morphological defects at the polar ends of bacteria
  expression of virulence genes (SPI-1): downregulation of key regulatory genes
  membrane permeabilization: membrane permeabilization

## OCCc1ccc(O)c(O)c1 [Hydroxytyrosol]
[11]
  antioxidant response genes: upregulation of antioxidant response
  cell wall biogenesis genes: upregulation of a set of genes involved in cell wall biogenesis

## O=C(O)/C=C/c1ccc(O)c(O)c1 [Caffeic acid]
[1]; ref Matejczyk et al., 2018
  MIC against E. coli: E. coli 0.25 g·L^−1
[1]; [16]
  MIC against E. coli: 110 µg/mL (≈ 611 µM)
[2]; ref Skroza et al., 2019
  MIC against S. aureus: 220 µg/mL (≈ 1220 µM)
[3]
  MIC against Bacillus cereus: 220 µg/mL (≈ 1220 µM)
[4]
  MIC against Salmonella Infantis: 110 µg/mL (≈ 611 µM)
[9]
  mechanism of action against L. monocytogenes: penetration or accumulation in the bacterial membrane of undissociated form
[12]
  concentration totally inhibiting growth of S. aureus: – for concentrations above 0.23% (w/v), each phenolic totally inhibited the growth of S. aureus inoculated in chicken soup at 4 °C within 3 days
[13]
  activity against biofilms: inhibit formation or to eradicate biofilms

## CN(C)c1ccc2nc3c(C(=O)O)cc(=O)c(O)c-3oc2c1 [gallocyanin]
[6]
  antibacterial activity in the presence of bovine meat proteins: kept its bactericidal activity at 37 °C up to a 5% (w/w) protein content in the medium, but not at 15 °C or 6 °C

## O=C(O)/C=C/c1ccc(O)cc1 [p-coumaric acid]
[9]
  mechanism of action against L. monocytogenes: dissociated form that is significantly antimicrobial
[12]
  concentration totally inhibiting growth of S. aureus: – for concentrations above 0.23% (w/v), each phenolic totally inhibited the growth of S. aureus inoculated in chicken soup at 4 °C within 3 days

## COC1=CC(=O)C=C(OC)C1=O [2,6-dimethoxy-1,4-benzoquinone]
[1]; ref Kim et al., 2010
  MIC against E. coli: 32 µg/mL (≈ 190 µM)
[8]; ref Kim et al., 2010
  MIC against S. typhimurium: 32 µg/mL (≈ 190 µM)
[2]; ref Kim et al., 2010
  MIC against S. aureus: 8 µg/mL (≈ 47.6 µM)
[3]; ref Kim et al., 2010
  MIC against B. cereus: 64 µg/mL (≈ 381 µM)

## O=C(/C=C/c1ccc(O)c(O)c1)O[C@H](Cc1ccc(O)c(O)c1)C(=O)O [Rosmarinic acid]
[1]; ref Adamczak et al., 2020
  MIC against E. coli: 500 µg/mL (≈ 1390 µM)
[1]; [16]
  MIC against E. coli: S. aureus 0.45 g·L^−1 B. cereus 0.45 g·L^−1 E. coli 0.45 g·L^−1 S. Infantis 0.45 g·L^−1
[7]
  MIC against P. aeruginosa: 500 to 1000 µg/mL
[2]; ref Skroza et al., 2019
  MIC against S. aureus: S. aureus 0.45 g·L^−1 B. cereus 0.45 g·L^−1 E. coli 0.45 g·L^−1 S. Infantis 0.45 g·L^−1
[3]
  MIC against Bacillus cereus: S. aureus 0.45 g·L^−1 B. cereus 0.45 g·L^−1 E. coli 0.45 g·L^−1 S. Infantis 0.45 g·L^−1
[4]
  MIC against Salmonella Infantis: S. aureus 0.45 g·L^−1 B. cereus 0.45 g·L^−1 E. coli 0.45 g·L^−1 S. Infantis 0.45 g·L^−1
[5]
  MIC against Enterococcus faecalis: 1000 µg/mL (≈ 2780 µM)

## COc1cc(C(=O)O)ccc1O [Vanillic acid]
[1]; 24 h 37°C
  MIC against Escherichia coli: 3400 µg/mL (≈ 20200 µM)
[1]; [16]
  MIC against E. coli: 100 µg/mL (≈ 595 µM)
[8]; ref Pacheco-Ordaz et al., 2017
  MIC against Salmonella typhimurium: 2500 µg/mL (≈ 14900 µM)
[2]; ref Skroza et al., 2019
  MIC against S. aureus: 420 µg/mL (≈ 2500 µM)
[3]
  MIC against Bacillus cereus: 100 µg/mL (≈ 595 µM)
[4]
  MIC against Salmonella Infantis: 210 µg/mL (≈ 1250 µM)
[9]
  mechanism of action against L. monocytogenes: penetration or accumulation in the bacterial membrane of undissociated form
[13]
  activity against biofilms: inhibit formation or to eradicate biofilms
[10]
  cell morphology: observation of mid-division cells
  membrane permeabilization: membrane permeabilization

## C[C@@H]1O[C@@H](OC[C@H]2O[C@@H](Oc3c(-c4ccc(O)c(O)c4)oc4cc(O)cc(O)c4c3=O)[C@H](O)[C@@H](O)[C@@H]2O)[C@H](O)[C@H](O)[C@H]1O [Rutin]
[1]; ref Adamczak et al., 2020
  MIC against E. coli: 500 µg/mL (≈ 819 µM)
[7]
  MIC against P. aeruginosa: 500 µg/mL (≈ 819 µM)
[2]; ref Adamczak et al., 2020
  MIC against S. aureus: 1000 µg/mL (≈ 1640 µM)
[5]
  MIC against Enterococcus faecalis: 1000 µg/mL (≈ 1640 µM)
[12]
  concentration totally inhibiting growth of S. aureus: – for concentrations above 0.23% (w/v), each phenolic totally inhibited the growth of S. aureus inoculated in chicken soup at 4 °C within 3 days

## O=c1cc(-c2ccccc2)oc2cc(O)cc(O)c12 [Chrysin]
[1]; ref Adamczak et al., 2020
  MIC against E. coli: 500 µg/mL (≈ 1970 µM)
[7]
  MIC against P. aeruginosa: 500 µg/mL (≈ 1970 µM)
[2]; ref Adamczak et al., 2020
  MIC against S. aureus: 500 µg/mL (≈ 1970 µM)
[5]
  MIC against Enterococcus faecalis: 1000 µg/mL (≈ 3930 µM)
[6]
  antibacterial activity in the presence of bovine meat proteins: always lost their bacteriostatic activity

## O=c1ccc2ccc(O)c(O)c2o1 [daphnetin]
[14]
  length of bacteria: increase in length of bacteria

## O=C(O)c1ccc(O)cc1 [p-hydroxybenzoic acid]
[9]
  mechanism of action against L. monocytogenes: penetration or accumulation in the bacterial membrane of undissociated form

## Cc1ccc(O)c(O)c1 [4-methylcatechol]
[13]
  activity against biofilms: inhibit formation or to eradicate biofilms

## COC(=O)c1cc(O)c(O)c(O)c1 [methyl gallate]
[15]
  P. aeruginosa biofilm formation, exopolysaccharides production and swarming motility: inhibition of biofilm formation
  quorum sensing in Chromobacterium violaceum and P. aeruginosa: anti-quorum sensing effect

## O=C1C=CC(=O)c2c(O)ccc(O)c21 [naphthazarin]
[6]
  antibacterial activity in the presence of bovine meat proteins: bactericidal at 6 °C and 15°C, unlike at 37 °C

## O=c1c(O)c(-c2ccc(O)cc2)oc2cc(O)cc(O)c12 [Kaempferol]
[1]; ref Adamczak et al., 2020
  MIC against E. coli: E. coli 0.5 g·L^−1
[1]; [16]
  MIC against E. coli: 360 µg/mL (≈ 1260 µM)
[2]; ref Skroza et al., 2019
  MIC against S. aureus: 90 µg/mL (≈ 314 µM)
[3]
  MIC against Bacillus cereus: 90 µg/mL (≈ 314 µM)
[4]
  MIC against Salmonella Infantis: 360 µg/mL (≈ 1260 µM)
[5]
  MIC against E. faecalis: E. faecalis 0.1 g·L^−1
